According to patent US7682785B2, “Method for predicting effectiveness of chemotherapy using anticancer agent” (Sysmex Corporation, priority 2005, dated 2010):
Values joined by “and” are separate entries in the source; they are usually repeats but may differ in a detail not shown here. Equal entries are not always repeated.

Key:
[1] = system: human-derived breast cancer cultured cells (cell A); test: Effect of anticancer agent therapy for cancerous mice (change in tumor size), cell A heterograft; type: in vivo; conditions: cell A implanted subcutaneously in mice; 20 mg/kg once a day for 5 days; tumor size to the 11th day
Procedure: (§1) 5 kinds of human-derived breast cancer cultured cells (cells A to E) were subcutaneously implanted on the backs of forty-six mice (No. 1 to 46). The mice were raised for 21 to 28 days to engraft the breast cancer cells. […] Upon lapse of 24 hours after the administration, tissues (about 50 mg) in the size of 2.5 mm×2.5 mm was cut from the back of each mouse. Each of the tissues were homogenized using an electric homogenizer to dissolve dissolvable components in a buffer solution containing 0.1 w/v % nonidet P-40 (NP-40) (Calbiochem), 50 mM tris-HCl (pH: 7.4), 5 mM EDTA, 50 mM sodium fluoride, 1 mM sodium orothovanadate, and 100 μl/ml of protease inhibitor cocktail (Sigma, St. Louis, Mo.).
(§2) The tumor size was measured from the start of the administration to the 11th day after the start of the administration. The chemotherapeutic effectiveness was classified, according to the change in tumor size, into Type I (high chemosensitivity), Type II (medium chemosensitivity), Type III (slightly low chemosensitivity), and Type IV (low chemosensitivity). […] The classification results are shown in the column of “Effect of therapy” in Table 1.

[2] = system: human-derived breast cancer cultured cells (cell B); test: Effect of anticancer agent therapy for cancerous mice (change in tumor size), cell B heterograft; type: in vivo; conditions: cell B implanted subcutaneously in mice; 20 mg/kg once a day for 5 days; tumor size to the 11th day
Procedure: as §1, §2

[3] = system: human-derived breast cancer cultured cells (cell C); test: Effect of anticancer agent therapy for cancerous mice (change in tumor size), cell C heterograft; type: in vivo; conditions: cell C implanted subcutaneously in mice; 20 mg/kg once a day for 5 days; tumor size to the 11th day
Procedure: as §1, §2

[4] = system: human-derived breast cancer cultured cells (cell D); test: Effect of anticancer agent therapy for cancerous mice (change in tumor size), cell D heterograft; type: in vivo; conditions: cell D implanted subcutaneously in mice; 20 mg/kg once a day for 5 days; tumor size to the 11th day
Procedure: as §1, §2

[5] = system: human-derived breast cancer cultured cells (cell E); test: Effect of anticancer agent therapy for cancerous mice (change in tumor size), cell E heterograft; type: in vivo; conditions: cell E implanted subcutaneously in mice; 20 mg/kg once a day for 5 days; tumor size to the 11th day
Procedure: as §1, §2

CDK2 = CDK2 specific activity in tumor tissue lysate of mouse heterograft after paclitaxel administration; type: in vivo, human; conditions: 24 hours after 20 mg/kg single administration, one value per mouse
Procedure: A tissue specimen containing target tumor cells was prepared in a 1.5 ml-Eppendorf tube so that 100 μg lysate in terms of total protein mass was dissolved in a buffer solution of 500 μl. […] After the addition, the solution was reacted at 4° C. for 1 hour. Thereafter, the beads were washed with a buffer solution (0.1% NP-40 and 50 mM tris-HCl adjusted pH 7.0) three times, followed by re-suspension in a kinase buffer of 15 μl. Thus, a sample containing the beads to which the target CDK binds was yielded.
(§3) In the sample, all the CDK (hereinafter, if distinction is not necessary, simply called as “CDKs”) including CDK itself, activated CDK to which cycline binds, complexes of activated CDK and CDK inhibitor, and complexes of CDK and CDK inhibitor were bound to the antibodies, thereby fixing the CDKs to the beads. The activity of the CDKs in the sample was measured by the following measurement method.
(§4) Prepared was a substrate solution containing 5 mM adenosine 5′-O-([…]) (ATP-γS (Sigma)), a buffer solution (20 mM tris-HCl (pH: 7.4), 0.1% Triton-X-100), and 10 μg histon H1 (Upstate Biotechnology, Lake Placid, N.Y.) as a substrate for CDK1 and CDK2. The substrate solution was added to the aforementioned sample solution containing the CDKs up to the total volume of 50 μl. The resulting sample solution was shaken for 10 minutes at 37° C. for incubation. As shown by the following formula, serine or threonine residue in the substrate was phosphorylated by the activated CDK, and monothiophosphorylated substrate was yielded.
(§5) After the reaction, the sample solution was centrifuged at 20,000 rpm for 20 seconds to precipitate the beads, and 18 μl of a supernatant in which monothiophosphates were dissolved was obtained. To 18 μl of the supernatant, added was 15 μl of a buffer solution (150 mM tris-HCl (pH: 9.2) and 5 mM EDTA). Further, the resultant solution was incubated in 10 mM iodoacetyl biotin solution (100 mM tris-HCl (pH: 7.5) and 1 mM EDTA) in a dark place for 90 minutes at room temperature. Thereby, sulfur ions in the thiophosphates in the monothiophosphorylated substrate were labeled by biotinylation. The reaction of the iodoacetyl biotin with the thiophosphates was stopped by adding […].
(§6) 0.4 μg of the biotinylated thiophosphorylated substrate was blotted on a PVDF membrane by using a slot blotter for adsorption. The blotted membrane was blocked with 1% of bovine serum albumin (BSA) for 30 minutes, followed by reaction with avidin-FITC (Vector, Burlingame, Calif.) at 37° C. for 1 hour. Thereafter, the membrane was washed with 50 mM TBS (25 mM tris-HCl (pH: 7.4) and 150 mM NaCl) for 10 minutes three times. After the washing, the image on the membrane was analyzed by a fluorescent image analyzer (Bio-Rad, Calif. U.S.A.). The activity of the CDKs was calculated based on a standard curve.
(§7) The standard curve was created by adsorbing a protein (biotinylated immunoglobulin) of a known amount to a PVDF membrane, labeling the protein with FITC in the same manner as mentioned above, and measuring the fluorescent intensity of the protein by the fluorescent image analyzer (Bio-Rad). 1 U of the CDK activity to be measured is a value representing the fluorescent intensity substantially equivalent to the fluorescent amount of the target protein of 1 ng.
An initialized PVDF membrane (Millipore, Billerica, Mass.) obtained by immersing the membrane in TBS (25 mM tris-HCl (pH: 7.4) and 150 mM NaCl) was set to a well plate for slot blotter. […]

p21 = test: Expression level of p21 (WAF1 ELISA) in tumor tissue lysate of mouse heterograft after paclitaxel administration; type: in vivo, human; parameters: unit not given here; conditions: 24 hours after 20 mg/kg single administration, one value per mouse
Procedure: Expression level of p21 is measured using CALIBIOCHEM p21 WAF 1 ELISA kit (EMD Bioscience Inc.).
WAF1 sample solutions (mixture solutions of specimen and WAF1 standard solution containing lyophilized WAF1) were prepared by diluting the WAF1 standard solution (20 unit/ml lyophilized WAF1) stepwise with the cell lysate as the specimen. In each of the sample solutions, the cell lysate was diluted 4-times or more.
Into 96-well plastic plate in which rabbit polyclonal antibodies (primary antibody) specific to WAF1 was coated, 100 μl each of the WAF1 sample solution and the WAF1 standard solution were individually seeded into the wells. The well plate was sealed and incubated at room temperature for 2 hours for reaction with the primary antibody.
After the well plate was washed with a cleaning buffer, which was prepared by adding 25 ml of a 20-times concentrated solution to 475 ml de-ionized water, three times, 100 μl of antibodies (biotinylated anti-WAF1 monoclonal antibodies) for detection of […] were added to each well. Thereafter, the well plate was sealed and allowed to react at room temperature for 1 hour.
After the reaction, the well plate was washed with the cleaning buffer three times, and then, 100 μl of a peroxidase-conjugated streptavidine diluent was added into each well, and the mixture was stirred moderately. Thereafter, the well plate was sealed and allowed to react at room temperature for 30 minutes. After reaction, unbound peroxidase-conjugated streptavidine was removed by washing with the cleaning buffer three times. And then, 100 μl of a substrate solution (pigment source substrate) was added into each well, and the mixture was reacted at room temperature for 30 minutes. Upon lapse of 30 minutes after the addition, 100 μl of a stop solution (2.5 N sulfuric acid) was poured into each well to stop the reaction. Then, absorbance of each well's contents was measured using a plate reader at dual wavelength of 450/540 nm.
The concentration of p21WAF1 in the WAF1 sample solutions was calculated based on a standard curve of the WAF1 standard solution.
as §1
After removing insoluble components by centrifuging at 15,000 rpm for 5 minutes at 4 ° C., the obtained supernatants (cell lysates) were used as specimens.
Activity and expression level of CDK1 and CDK2 respectively were measured with respect to the specimens obtained in the experiment (1) in accordance with the aforementioned measurement method, and the specific activity of CDK1 and the specific activity of CDK2 in the specimens were calcurated. Also, the expression level of p21 in the specimens was measured in accordance with the aforementioned measurement method.

CDK1 = CDK1 specific activity in tumor tissue lysate of mouse heterograft after paclitaxel administration; type: in vivo, human; conditions: 24 hours after 20 mg/kg single administration, one value per mouse
Procedure: A tissue specimen containing target tumor cells was prepared in a 1.5 ml-Eppendorf tube so that 100 μg lysate in terms of total protein mass was dissolved in a buffer solution of 500 μl. To the buffer solution, added were sepharose beads (Bio-Rad, Calif., U.S.A.) coated with 20 μl of a protein A and 2 μg of antibodies specific to the CDK whose activity was to be measured, i.e. polyclonal anti-CDK1-antibodies or polyclonal anti-CDK2-antibodies (Santa Cruz Biotechnology, Santa Cruz, Calif.). After the addition, the solution was reacted at 4° C. for 1 hour. Thereafter, the beads were washed with a buffer solution (0.1% NP-40 and 50 mM tris-HCl adjusted pH 7.0) three times, followed by re-suspension in a kinase buffer of 15 μl. Thus, a sample containing the beads to which the target CDK binds was yielded.
as §3, §4, §5
as §6, with “Thereafter, the membrane was washed with 50 mM TBS (25 mM tris-HCl (pH: 7.4) and 150 mM NaCl) for 10 minutes three times.” left out
as §7, with “ng. […]” for “ng.”

Compound: CC(=O)O[C@H]1C(=O)[C@@]2(C)[C@H]([C@H](OC(=O)c3ccccc3)[C@]3(O)C[C@H](OC(=O)[C@H](O)[C@@H](NC(=O)c4ccccc4)c4ccccc4)C(C)=C1C3(C)C)[C@]1(OC(C)=O)CO[C@@H]1C[C@@H]2O [paclitaxel]
- Therapy using anticancer agent: Effect of therapy [1]: Type I
- Therapy using anticancer agent: Effect of therapy [2]: Type II
- Therapy using anticancer agent: Effect of therapy [3]: Type II
- Therapy using anticancer agent: Effect of therapy [4]: Type III
- Therapy using anticancer agent: Effect of therapy [5]: Type IV
- Specific activity of CDK2 (CDK2; cell A tumor tissue): 734.6 mU/ng and 634.1 mU/ng and 1083.2 mU/ng and 766.4 mU/ng and 407.1 mU/ng and 574.5 mU/ng and 545.0 mU/ng
- Specific activity of CDK2 (CDK2; cell B tumor tissue): 156.2 mU/ng and 192.8 mU/ng and 109.1 mU/ng and 328.6 mU/ng and 64.8 mU/ng and 130.5 mU/ng and 171.6 mU/ng and 140.3 mU/ng and 157.9 mU/ng and 92.1 mU/ng and 41.9 mU/ng
- Specific activity of CDK2 (CDK2; cell C tumor tissue): 163.6 mU/ng and 213.3 mU/ng and 209.9 mU/ng and 341.2 mU/ng and 106.9 mU/ng and 206.6 mU/ng and 140.6 mU/ng and 98.6 mU/ng and 114.8 mU/ng and 201.8 mU/ng and 129.9 mU/ng and 151.0 mU/ng and 138.8 mU/ng and 187.9 mU/ng and 124.6 mU/ng and 136.6 mU/ng
- Specific activity of CDK2 (CDK2; cell D tumor tissue): 0.0 mU/ng (4×) and 80.1 mU/ng and 23.6 mU/ng
- Specific activity of CDK2 (CDK2; cell E tumor tissue): 55.7 mU/ng and 50.2 mU/ng and 59.1 mU/ng and 0.0 mU/ng and 56.4 mU/ng
- Expression level of p21 (p21; cell A tumor tissue): 1.43 and 1.34 and 1.93 and 1.28 and 0.00 and 0.86 and 1.26
- Expression level of p21 (p21; cell B tumor tissue): 4.09 and 4.61 and 5.18 and 5.25 and 5.41 and 5.57 and 5.33 and 5.00 and 3.42 and 4.33 and 5.43
- Expression level of p21 (p21; cell C tumor tissue): 1.06 and 1.44 and 0.00 (7×) and 1.31 and 0.85 and 0.77 and 0.64 and 0.57 and 0.53 and 0.29
- Expression level of p21 (p21; cell D tumor tissue): 8.76 and 7.21 and 7.62 and 7.34 and 6.39 and 5.40 and 0.74
- Expression level of p21 (p21; cell E tumor tissue): 34.45 and 10.96 and 15.33 and 17.25 and 15.25
- Specifc activity of CDK1 (CDK1; cell A tumor tissue): 11.79 mU/ng and 10.83 mU/ng and 17.50 mU/ng and 21.77 mU/ng and 16.12 mU/ng and 16.82 mU/ng and 13.55 mU/ng
- Specifc activity of CDK1 (CDK1; cell B tumor tissue): 27.00 mU/ng and 31.56 mU/ng and 20.53 mU/ng and 13.39 mU/ng and 33.32 mU/ng and 32.01 mU/ng and 34.33 mU/ng and 34.21 mU/ng and 35.27 mU/ng and 25.40 mU/ng and 13.90 mU/ng
- Specifc activity of CDK1 (CDK1; cell C tumor tissue): 25.48 mU/ng and 11.25 mU/ng and 22.64 mU/ng and 39.14 mU/ng and 21.35 mU/ng and 11.22 mU/ng and 13.77 mU/ng and 7.06 mU/ng and 16.60 mU/ng and 11.60 mU/ng and 15.29 mU/ng and 12.58 mU/ng and 41.80 mU/ng and 60.36 mU/ng and 36.09 mU/ng and 30.85 mU/ng
- Specifc activity of CDK1 (CDK1; cell D tumor tissue): 10.75 mU/ng and 0.00 mU/ng and 7.10 mU/ng and 6.48 mU/ng and 22.16 mU/ng and 9.68 mU/ng and 10.04 mU/ng
- Specifc activity of CDK1 (CDK1; cell E tumor tissue): 9.81 mU/ng and 2.45 mU/ng and 8.76 mU/ng and 7.92 mU/ng and 8.29 mU/ng
